Data taken from patent US9695155B2, “Herbicidal substituted pyrimidinyloxy benzene compounds” (E. I. DU PONT DE NEMOURS AND COMPANY, priority 2013, dated 2017).

Assays:
pigweed [1] = assay: Test A postemergence; assay type: in vivo, Amaranthus retroflexus
Outline: (§1)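 Injury scores run from 0, no effect, to 100, complete control, judged by eye against untreated plants roughly 10 days after treatment. Chemicals carried a surfactant in a non-phytotoxic solvent and went onto loam–sand soil preemergence or onto one- to two-leaf seedlings postemergence.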

giant foxtail [2] = assay: Test A postemergence; assay type: in vivo, Setaria faberii
Outline: as §1

wheat [3] = assay: Test A postemergence; assay type: in vivo, Triticum aestivum
Source text: (§2) Seeds of plant species selected from barnyardgrass (Echinochloa crus-galli), kochia (Kochia scoparia), ragweed (common ragweed, Ambrosia elatior), Italian ryegrass (Lolium multiflorum), large (Lg) crabgrass (Digitaria sanguinalis), giant foxtail (Setaria faberii), morningglory (Ipomoea spp.), pigweed (Amaranthus retroflexus), velvetleaf (Abutilon theophrasti), wheat (Triticum aestivum), and corn (Zea mays) were planted into a blend of loam soil and sand and treated preemergence with a directed soil spray using test chemicals formulated in a non-phytotoxic solvent mixture which included a surfactant.
(§3) At the same time, plants selected from these crop and weed species and also blackgrass (Alopecurus myosuroides), and galium (catchweed bedstraw, Galium aparine) were planted in pots containing the same blend of loam soil and sand and treated with postemergence applications of test chemicals formulated in the same manner. Plants ranged in height from 2 to 10 cm and were in the one- to two-leaf stage for the postemergence treatment. Treated plants and untreated controls were maintained in a greenhouse for approximately 10 days, after which time all treated plants were compared to untreated controls and visually evaluated for injury. Plant response ratings, summarized in Table A, are based on a 0 to 100 scale where 0 is no effect and 100 is complete control. A dash (-) response means no test result.

Heteranthera limosa = assay: Test B flooded paddy test; assay type: in vivo; conditions: Flood, 250 g ai/ha; 0 to 100 scale where 0 is no effect and 100 is complete control
Method: (§4) Plant species in the flooded paddy test selected from rice (Oryza sativa), sedge, umbrella (small-flower umbrella sedge, Cyperus difformis), (Heteranthera limosa), and barnyardgrass (Echinochloa crus-galli) were grown to the 2-leaf stage for testing. At time of treatment, test pots were flooded to 3 cm above the soil surface, treated by application of test compounds directly to the paddy water, and then maintained at that water depth for the duration of the test. Treated plants and controls were maintained in a greenhouse for 13 to 15 days, after which time all species were compared to controls and visually evaluated. Plant response ratings, summarized in Table B, are based on a scale of 0 to 100 where 0 is no effect and 100 is complete control. A dash (-) response means no test result.

large (Lg) crabgrass [4] = assay: Test A preemergence; assay type: in vivo, Digitaria sanguinalis
Outline: as §1

barnyardgrass [5] = assay: Test A preemergence; assay type: in vivo, Echinochloa crus-galli
Source text: as §2, §3

wheat [6] = assay: Test A preemergence; assay type: in vivo, Triticum aestivum
Outline: as §1

rice = assay: Test B flooded paddy test; assay type: in vivo, Oryza sativa; conditions: Flood, 250 g ai/ha; 0 to 100 scale where 0 is no effect and 100 is complete control
Method: as §4

giant foxtail [7] = assay: Test A preemergence; assay type: in vivo, Setaria faberii
Source text: as §2, §3

corn [8] = assay: Test A postemergence; assay type: in vivo, Zea mays
Source text: as §2, §3

velvetleaf [9] = assay: Test A preemergence; assay type: in vivo, Abutilon theophrasti
Source text: as §2, §3

corn [10] = assay: Test A preemergence; assay type: in vivo, Zea mays
Source text: as §2, §3

barnyardgrass [11] = assay: Test A postemergence; assay type: in vivo, Echinochloa crus-galli
Source text: as §2, §3

morningglory [12] = assay: Test A preemergence; assay type: in vivo, Ipomoea spp.
Source text: as §2, §3

barnyardgrass [13] = assay: Test B flooded paddy test; assay type: in vivo, Echinochloa crus-galli; conditions: Flood, 250 g ai/ha; 0 to 100 scale where 0 is no effect and 100 is complete control
Method: as §4

large (Lg) crabgrass [14] = assay: Test A postemergence; assay type: in vivo, Digitaria sanguinalis
Outline: as §1

velvetleaf [15] = assay: Test A postemergence; assay type: in vivo, Abutilon theophrasti
Source text: as §2, §3

morningglory [16] = assay: Test A postemergence; assay type: in vivo, Ipomoea spp.
Outline: as §1

sedge, umbrella = assay: Test B flooded paddy test; assay type: in vivo, Cyperus difformis; conditions: Flood, 250 g ai/ha; 0 to 100 scale where 0 is no effect and 100 is complete control
Method: as §4

pigweed [17] = assay: Test A preemergence; assay type: in vivo, Amaranthus retroflexus
Outline: as §1

[18] = 125 g ai/ha, 0 to 100 scale where 0 is no effect and 100 is complete control
[19] = 500 g ai/ha, 0 to 100 scale, 0 no effect, 100 complete control
[20] = 500 g ai/ha, 0 to 100 scale, 0 no effect, 100 complete control, approx. 10 days

SMILES	Plant response rating, Pigweed (pigweed [1]; [18])	Plant response rating, Pigweed (pigweed [1]; [19])	Plant response rating, Foxtail, Giant (giant foxtail [2]; [18])	Plant response rating, Foxtail, Giant (giant foxtail [2]; [19])	Plant response rating, Wheat (wheat [3]; [18])	Plant response rating, Wheat (wheat [3]; [19])	Plant response rating, Ducksalad (Heteranthera limosa)	Crabgrass, Large plant response rating (large (Lg) crabgrass [4]; [20])	Barnyardgrass plant response rating (barnyardgrass [5]; [20])	Wheat plant response rating (wheat [6]; [20])	Plant response rating, Rice (rice)	Foxtail, Giant plant response rating (giant foxtail [7]; [20])	Plant response rating, Corn (corn [8]; [18])	Plant response rating, Corn (corn [8]; [19])	Velvetleaf plant response rating (velvetleaf [9]; [20])	Corn plant response rating (corn [10]; [20])	Plant response rating, Barnyardgrass (barnyardgrass [11]; [18])	Plant response rating, Barnyardgrass (barnyardgrass [11]; [19])	Plant response rating, Barnyardgrass (barnyardgrass [13])	Plant response rating, Crabgrass, Large (large (Lg) crabgrass [14]; [18])	other results
FC(F)(F)c1ccn(-c2ccccc2Oc2ncc(Br)cn2)n1 [Compound 1]	50	100	10	60	0	0	0	100	70	0	0	100	0	10	20	0	10	30	0	20	Crabgrass, Large plant response rating (large (Lg) crabgrass [4]; [18]): 50; Barnyardgrass plant response rating (barnyardgrass [5]; [18]): 20; Wheat plant response rating (wheat [6]; [18]): 0; Foxtail, Giant plant response rating (giant foxtail [7]; [18]): 60; Velvetleaf plant response rating (velvetleaf [9]; [18]): 0; Corn plant response rating (corn [10]; [18]): 0; Morningglory plant response rating (morningglory [12]; [18]): 0; Morningglory plant response rating (morningglory [12]; [20]): 0; Plant response rating, Crabgrass, Large (large (Lg) crabgrass [14]; [19]): 50; Plant response rating, Velvetleaf (velvetleaf [15]; [18]): 20; Plant response rating, Velvetleaf (velvetleaf [15]; [19]): 70; Plant response rating, Morningglory (morningglory [16]; [18]): 0; Plant response rating, Morningglory (morningglory [16]; [19]): 20; Plant response rating, Sedge, Umbrella (sedge, umbrella): 0; Pigweed plant response rating (pigweed [17]; [18]): 60; Pigweed plant response rating (pigweed [17]; [20]): 100
Cc1ccn(-c2ccccc2Oc2ncc(Cl)cn2)n1 [Compound 36]	0	20	0	0	0	0	0	70	0	0	0	20	0	0	20	0	0	0	0	0	Plant response rating, Crabgrass, Large (large (Lg) crabgrass [4]; [18]): 0; Plant response rating, Barnyardgrass (barnyardgrass [5]; [18]): 0; Plant response rating, Wheat (wheat [6]; [18]): 0; Plant response rating, Foxtail, Giant (giant foxtail [7]; [18]): 0; Plant response rating, Velvetleaf (velvetleaf [9]; [18]): 0; Plant response rating, Corn (corn [10]; [18]): 0; Plant response rating, Crabgrass, Large (large (Lg) crabgrass [14]; [19]): 10; Plant response rating, Velvetleaf (velvetleaf [15]; [18]): 20; Plant response rating, Velvetleaf (velvetleaf [15]; [19]): 70; Plant response rating, Sedge, Umbrella (sedge, umbrella): 0; Plant response rating, Pigweed (pigweed [17]; [18]): 0; Pigweed plant response rating (pigweed [17]; [20]): 20
Cc1nn(-c2ccccc2Oc2ncc(Cl)cn2)cc1Br [Compound 37]	0	10	0	0	0	0	0	80	10	0	0	30	0	0	10	0	0	0	0	0	Plant response rating, Crabgrass, Large (large (Lg) crabgrass [4]; [18]): 10; Plant response rating, Barnyardgrass (barnyardgrass [5]; [18]): 0; Plant response rating, Wheat (wheat [6]; [18]): 0; Plant response rating, Foxtail, Giant (giant foxtail [7]; [18]): 10; Plant response rating, Velvetleaf (velvetleaf [9]; [18]): 10; Plant response rating, Corn (corn [10]; [18]): 0; Plant response rating, Morningglory (morningglory [12]; [18]): 0; Morningglory plant response rating (morningglory [12]; [20]): 0; Plant response rating, Crabgrass, Large (large (Lg) crabgrass [14]; [19]): 0; Plant response rating, Velvetleaf (velvetleaf [15]; [18]): 20; Plant response rating, Velvetleaf (velvetleaf [15]; [19]): 40; Plant response rating, Sedge, Umbrella (sedge, umbrella): 0; Plant response rating, Pigweed (pigweed [17]; [18]): 0; Pigweed plant response rating (pigweed [17]; [20]): 0
Cc1nn(-c2ccccc2Oc2ncc(Cl)cn2)cc1Cl [Compound 38]	0	10	0	0	0	0	0	40	0	0	0	20	0	0	10	0	0	0	0	0	Plant response rating, Crabgrass, Large (large (Lg) crabgrass [4]; [18]): 0; Plant response rating, Barnyardgrass (barnyardgrass [5]; [18]): 0; Plant response rating, Wheat (wheat [6]; [18]): 0; Plant response rating, Foxtail, Giant (giant foxtail [7]; [18]): 0; Plant response rating, Velvetleaf (velvetleaf [9]; [18]): 0; Plant response rating, Corn (corn [10]; [18]): 0; Plant response rating, Morningglory (morningglory [12]; [18]): 0; Morningglory plant response rating (morningglory [12]; [20]): 0; Plant response rating, Crabgrass, Large (large (Lg) crabgrass [14]; [19]): 10; Plant response rating, Velvetleaf (velvetleaf [15]; [18]): 10; Plant response rating, Velvetleaf (velvetleaf [15]; [19]): 20; Plant response rating, Sedge, Umbrella (sedge, umbrella): 30; Plant response rating, Pigweed (pigweed [17]; [18]): 0; Pigweed plant response rating (pigweed [17]; [20]): 0
Cc1nn(-c2ccccc2Oc2ncc(Cl)cn2)cc1Cl [Compound 39]	10	40	0	0	0	0	50	90	10	0	0	50	0	10	20	0	0	0	0	0	Plant response rating, Crabgrass, Large (large (Lg) crabgrass [4]; [18]): 10; Plant response rating, Barnyardgrass (barnyardgrass [5]; [18]): 0; Plant response rating, Wheat (wheat [6]; [18]): 0; Plant response rating, Foxtail, Giant (giant foxtail [7]; [18]): 10; Plant response rating, Velvetleaf (velvetleaf [9]; [18]): 10; Plant response rating, Corn (corn [10]; [18]): 0; Plant response rating, Morningglory (morningglory [12]; [18]): 0; Morningglory plant response rating (morningglory [12]; [20]): 0; Plant response rating, Crabgrass, Large (large (Lg) crabgrass [14]; [19]): 10; Plant response rating, Velvetleaf (velvetleaf [15]; [18]): 20; Plant response rating, Velvetleaf (velvetleaf [15]; [19]): 30; Plant response rating, Sedge, Umbrella (sedge, umbrella): 30; Plant response rating, Pigweed (pigweed [17]; [18]): 0; Pigweed plant response rating (pigweed [17]; [20]): 0
